Assay results taken from patent US8084262B2, “Biomarker for farnesyl pathway” (Hoffmann-La Roche Inc., priority 2006, dated 2011).
Where two headings read alike, the source gives them in different places.

Legend:
[1] = system: N-acetyl-felinine; assay: Determination of N-acetyl-felinine in rat urine by LC-MS; format: in vivo, Sprague Dawley rats; conditions: for LC-MS signal for expected mass of N-acetyl felinine (m/z 248 in neg. mode): rat urine, 96 h after dosing
Procedure: (§1) Urine samples were collected in metabolism cages at 0 to 4° C. (automatically refrigerated by a Tecniplast sampling/cooling unit) at the intervals given in the sampling schedule below into sample tubes containing 1 ml of an aqueous Cs-azide (1%) solution. Before aliquoting, urine volumes were determined.
(§2) Immediately after reaching the end of the sampling period, the volume was determined and the samples were centrifuged at 3000 u/min [500 g] for 10 min.
LC-MS analysis of urine was performed using an Agilent 1100 HPLC system coupled to a Bruker Esquire 3000+ mass spectrometer equipped with an electrospray interface. Urine samples were diluted 4-fold with distilled water and 2 μl injections were made from a well plate maintained at 4° C. into a 150 mm×3.9 mm Waters Atlantis dC18 3 μm HPLC column maintained in an oven at 30° C. The column was eluted at a flow rate of 1 ml/min; mobile phase A consisted of 20 mM ammonium acetate, and mobile phase B of acetonitrile. […] The mass spectrometer was operated in negative mode with a dry gas flow of 81/min, nebulizer pressure of 27 psi and dry temperature of 330° C. The instrument was set to acquire over the mass range m/z 50-800. N-acetyl-felinine was found under this conditions at a retention time of 9.6 min with the expected m/z 248 (see FIG. 8) in samples of rats dosed with Zoledronate.

[2] = system: kidney and liver; conditions: rat, in vivo
[3] = system: N-acetyl-felinine; assay: Determination of N-acetyl-felinine in rat urine by NMR; format: in vivo, Sprague Dawley rats; conditions: for N-acetyl-felinine levels in urine: in a given time interval after stimulation
Procedure: as §1, §2
N-acetyl-felinine was identified in urine samples on basis of 1D and 2D NMR spectra. Spectra were acquired at 600.13 MHz on a Bruker AV 600 spectrometer and at 500.13 MHz on Bruker DRX-500 spectrometer. Urine samples were prepared and measured and the data evaluated as described elsewhere (Keun, H. C.; Ebbels, T. M. D.; Antti, H.; Bollard, M. E.; Beckonert, O.; Schlotterbeck, G.; Senn, H,; Niederhauser, U.; Holmes, E.; Lindon, J. C.; Nicholson, J. K. Chem. Res. Toxicol. 2002, 15, 1380-1386).
Aliquots of 400 microliter urine are transferred into well plates. For adjustment of urinary pH 200 microliter of buffer [ca. 0.2M Na2HPO4/NaH2PO4, ca. 1 mM TSP (3-trimethylsilyl-D4-propionic acid), ca. 3 mM sodium azide] is added to each well. Prepared well plates are centrifuged at ca. 3,000 rpm at 4° C. for 5-10 min to remove insoluble material.
^1H NMR spectra for Metabonomic analysis (e.g. at 500 Mhz, 64 k data points, 12019.2 Hz spectral width) were measured at 300K. The water resonance were suppressed by use of standard pulse-sequences (e.g noesyprld, irradiation for 2 s relaxation delay and during 100 ms mixing time). For each sample as many transients were added as is needed to provide spectra high enough in signal to noise. Fourier transformation was done by use of a matched window function (e.g. lb=1) followed by (automatic or manual) phasing and base-line correction. Referencing was done with respect to TSP added (defined as 0.0 ppm). Acquisition and processing of spectra was performed with Bruker XWinNMR 3.5 software.
Each spectrum recorded was reduced in size for simplified statistical analysis (e.g. For NMR spectra recorded according to the standard protocol 245 variables will be calculated by equidistant integration between 0.2-10.0 ppm). Regions containing misleading information (e.g. solvents, urea cover a region for 4.5 up to 6.0 ppm) were excluded or merged (e.g. the region from 2.66 to 2.74 ppm serves as a value indicative for citrate) prior to analysis. To take account variations in urine concentration, all data-reduced spectra were normalised to a constant integrated intensity of 100 units.
Thereby widespread PCA (principal component analysis) is used for identifying significant patterns of signals and assigning these patterns to samples and groups of samples. PLS (projection to latent structures, partial least squares) is also used for finding significant patterns of signals, whereby in contrast to PCA the information of dose-groups is used for boosting the identification of significant changes. The assignment is performed with the help of an internal data base of metabolites, with the help of pathway mapping procedures (KEGG database) and with the help of a spectroscopic structure elucidation for unknown metabolites when feasible.

[4] = system: kidney and liver; assay: Histopathology of treated animals (kidney and liver toxicity)

| Structure (SMILES) | LC-MS signal for expected mass of N-acetyl felinine (m/z 248 in neg. mode) ([1]; 3 mg/kg, FIG. 9) | kidney and liver toxicity in histopathology [2] | N-acetyl-felinine levels in urine [3] | Time course of bin 1.32 ppm (Methyl signals of N-Acetyl felinine) relative to creatinine ([3]; rat urine NMR, FIG. 3) | kidney and liver toxicity in histopathology [4] | N-acetyl-felinine in urine by LC-MS ([1]; negative mode, urine samples of dosed rats) | LC-MS signal for expected mass of N-acetyl felinine (m/z 248 in neg. mode) ([1]; 6 mg/kg, FIG. 8) | N-acetyl-felinine in urine NMR spectra ([3]; 1D NMR, signal at 1.32 ppm, FIG. 5) | NMR signal at 1.32 ppm in urine ([3]; 96 h after dosing, FIG. 5) |
| --- | --- | --- | --- | --- | --- | --- | --- | --- | --- |
| CCCCCN(C)CCC(O)(P(=O)(O)O)P(=O)(O)O [Ibandronate] | No signal found | not so | undetectable | no increase | – | – | – | – | – |
| O=P(O)(O)C(O)(Cn1ccnc1)P(=O)(O)O [Zoledronate] | – | – | high levels | – | kidney and liver toxicity was observed | found | Strong signal found | found | New signal at 1.32 ppm visible |
